# Results taken from the supplement of paper PMC10307832.
# How the values were obtained:
# Assay in all cases: relative viability (nuclei count vs DMSO), 5 days (fraction); higher = more cells survive
# BI-D1870 + Foretinib = compound: CC(C)CCN1c2nc(Nc3cc(F)c(O)c(F)c3)ncc2N(C)C(=O)C1C [BI-D1870] + COc1cc2c(Oc3ccc(NC(=O)C4(C(=O)Nc5ccc(F)cc5)CC4)cc3F)ccnc2cc1OCCCN1CCOCC1 [Foretinib] (partner 0.25 µM)
# How it was run: (§1)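 After 5 days of treatment, lung cancer cells in 1536-well plates were fixed and stained in a single step (final 0.05% Triton X-100, 1% formaldehyde, 1 ug/ml Hoechst) and their nuclei counted on 4× images. Treatment had been applied by pin tool the day after seeding as one drug alone or as a fixed anchor-drug dose with five library-drug doses (not always all listed) in √10 steps. Relative viability is the nuclei count of treated wells divided by that of vehicle wells, and values are medians of duplicate plates.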
# BI-D1870 + Pictilisib = compound: CC(C)CCN1c2nc(Nc3cc(F)c(O)c(F)c3)ncc2N(C)C(=O)C1C [BI-D1870] + CS(=O)(=O)N1CCN(Cc2cc3nc(-c4cccc5[nH]ncc45)nc(N4CCOCC4)c3s2)CC1 [Pictilisib] (partner 1 µM)
# How it was run: as §1
# Zebularine + Tozasertib = compound: O=c1ncccn1[C@@H]1O[C@H](CO)[C@@H](O)[C@H]1O [Zebularine] + Cc1cc(Nc2cc(N3CCN(C)CC3)nc(Sc3ccc(NC(=O)C4CC4)cc3)n2)n[nH]1 [Tozasertib] (partner 0.1 µM)
# How it was run: as §1
# Zebularine + Olaparib = compound: O=c1ncccn1[C@@H]1O[C@H](CO)[C@@H](O)[C@H]1O [Zebularine] + O=C(c1cc(Cc2n[nH]c(=O)c3ccccc23)ccc1F)N1CCN(C(=O)C2CC2)CC1 [Olaparib] (partner 8 µM)
# How it was run: as §1
Cell Line,relative viability (BI-D1870 + Foretinib; first compound 0.04 µM),relative viability (BI-D1870 + Foretinib; first compound 0.1265 µM),relative viability (BI-D1870 + Foretinib; first compound 0.4 µM),relative viability (BI-D1870 + Foretinib; first compound 1.265 µM),relative viability (BI-D1870 + Foretinib; first compound 4 µM),relative viability (BI-D1870 + Pictilisib; first compound 0.04 µM),relative viability (BI-D1870 + Pictilisib; first compound 0.1265 µM),relative viability (BI-D1870 + Pictilisib; first compound 0.4 µM),relative viability (BI-D1870 + Pictilisib; first compound 1.265 µM),relative viability (BI-D1870 + Pictilisib; first compound 4 µM),relative viability (Zebularine + Tozasertib; first compound 1 µM),relative viability (Zebularine + Tozasertib; first compound 3.162 µM),relative viability (Zebularine + Tozasertib; first compound 10 µM),relative viability (Zebularine + Tozasertib; first compound 31.62 µM),relative viability (Zebularine + Tozasertib; first compound 100 µM),relative viability (Zebularine + Olaparib; first compound 1 µM),relative viability (Zebularine + Olaparib; first compound 3.162 µM),relative viability (Zebularine + Olaparib; first compound 10 µM),relative viability (Zebularine + Olaparib; first compound 31.62 µM),relative viability (Zebularine + Olaparib; first compound 100 µM)
NCI-H2126,1.23,1.14,1.22,1.15,1.06,0.556,0.491,0.45,0.461,0.386,0.911,0.807,0.727,0.791,0.479,1.08,0.855,0.778,0.664,0.43
NCI-H3122,0.898,0.942,0.96,0.974,0.889,0.632,0.434,0.604,0.653,0.62,0.391,0.401,0.262,0.626,0.375,0.727,0.631,0.358,0.478,0.369
NCI-H1975,0.996,0.849,0.884,0.912,0.847,0.297,0.276,0.288,0.299,0.208,1.11,0.684,0.412,0.293,0.23,0.84,0.574,0.277,0.257,0.251
NCI-H1944,0.992,0.799,0.848,1.04,0.973,0.395,0.294,0.332,0.377,0.345,0.274,0.268,0.213,0.254,0.234,0.449,0.474,0.366,0.34,0.246
LU99A,0.913,0.683,0.696,0.788,0.796,0.368,0.253,0.319,0.305,0.358,0.296,0.276,0.239,0.261,0.159,0.306,0.243,0.245,0.182,0.135
SW 1573,0.958,0.783,0.853,0.937,0.881,0.6,0.414,0.47,0.402,0.368,0.223,0.163,–,0.137,0.148,0.487,0.442,0.33,0.46,0.325
NCI-H2347,0.977,0.993,0.903,0.723,0.863,0.797,0.466,0.662,0.649,0.44,0.632,0.482,0.51,0.405,0.309,0.565,0.566,0.531,0.385,0.358
NCI-H2009,1.31,1.09,1.23,1.12,1,0.949,0.77,0.719,0.633,0.318,0.891,0.737,0.497,0.659,0.297,0.624,0.648,0.461,0.438,0.263
HCC-15,1.11,0.911,1,0.921,0.599,0.792,0.661,0.674,0.79,0.509,0.308,0.414,0.339,0.386,0.179,0.864,0.652,0.465,0.371,0.307
HCC-44,–,–,–,–,–,0.651,0.498,0.617,0.768,0.443,1.14,1.05,0.82,0.418,0.361,0.974,0.971,0.762,0.825,0.39
NCI-H1299,1.13,1.07,1.08,1.08,0.952,0.801,0.774,0.653,0.514,0.19,–,–,–,–,–,1.06,0.893,0.852,0.805,0.447
SW 900,0.855,0.949,0.893,0.751,1.22,–,–,–,–,–,0.659,0.548,0.445,0.478,0.371,1.04,0.889,–,0.773,0.479
NCI-H1563,0.957,0.927,0.939,1.04,0.967,0.674,0.617,0.604,0.693,0.681,–,–,–,–,–,–,–,–,–,–
A549,1.08,0.958,1.01,0.963,0.747,0.725,0.499,0.369,0.465,0.0705,–,–,–,–,–,0.475,0.165,0.163,0.156,0.0971
NCI-H2342,1.04,1,1.11,1.18,1.23,–,–,–,–,–,0.451,0.4,0.446,0.476,0.469,0.462,0.468,0.388,0.437,0.365
NCI-H1623,0.913,0.843,0.801,0.903,0.794,–,–,–,–,–,0.513,0.437,0.39,0.535,0.389,–,–,–,–,–
NCI-H522,–,–,–,–,–,–,–,–,–,–,0.549,0.526,0.527,0.522,0.577,0.746,0.647,0.577,0.546,0.573
IA-LM,1.24,1.07,1.32,1.03,0.977,0.406,0.294,0.268,0.196,0.106,–,–,–,–,–,0.889,0.828,–,1.04,0.401
EBC-1,0.103,0.119,0.105,0.136,0.0927,0.459,0.451,0.354,0.363,0.123,–,–,–,–,–,0.833,0.731,0.584,0.547,0.359
